Experiment in all cases: radiolabelled phospholipid transfer between donor and acceptor vesicles
Common to all, as to format: biochemical

The target in one assay is T1, PFA0210cN99 (Plasmodium falciparum, UniProt Q8I298).
T1 construct: gene PF3D7_0104200
The note with it: labelled compound, donor vesicles PC, phosphatidic acid, N-lactosylethanolamine.

For assay [1], the target named is T2, PITP (rat phosphatidylinositol transfer protein α) (Rattus norvegicus, UniProt P16446).
T2 construct: gene Pitpna
T2 sequence (P16446 2-271): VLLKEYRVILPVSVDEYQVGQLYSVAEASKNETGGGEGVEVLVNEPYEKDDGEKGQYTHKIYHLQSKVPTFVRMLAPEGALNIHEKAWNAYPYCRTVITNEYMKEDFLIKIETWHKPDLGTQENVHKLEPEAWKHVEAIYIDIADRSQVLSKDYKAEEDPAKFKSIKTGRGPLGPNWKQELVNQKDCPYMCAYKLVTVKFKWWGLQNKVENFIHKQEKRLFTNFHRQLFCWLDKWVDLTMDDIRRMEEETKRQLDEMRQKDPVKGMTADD
The note with it: labelled compound; positive control protein; vesicles as in the rows above.

The target in another assay is T3, PFA0210cN123 (Plasmodium falciparum, UniProt Q8I298).
T3 construct: gene PF3D7_0104200
The note with it: labelled compound, donor vesicles PC, phosphatidic acid, N-lactosylethanolamine.

T1 sequence (Q8I298 entry or part of it): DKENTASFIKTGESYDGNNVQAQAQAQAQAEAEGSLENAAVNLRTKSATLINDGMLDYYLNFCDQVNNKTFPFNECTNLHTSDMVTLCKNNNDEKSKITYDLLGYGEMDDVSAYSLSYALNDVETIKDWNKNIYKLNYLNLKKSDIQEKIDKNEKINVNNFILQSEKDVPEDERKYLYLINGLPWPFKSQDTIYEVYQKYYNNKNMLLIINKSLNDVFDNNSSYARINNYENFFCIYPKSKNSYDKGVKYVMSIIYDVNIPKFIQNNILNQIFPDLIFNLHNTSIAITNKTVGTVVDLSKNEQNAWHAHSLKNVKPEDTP
T3 sequence (Q8I298 entry or part of it): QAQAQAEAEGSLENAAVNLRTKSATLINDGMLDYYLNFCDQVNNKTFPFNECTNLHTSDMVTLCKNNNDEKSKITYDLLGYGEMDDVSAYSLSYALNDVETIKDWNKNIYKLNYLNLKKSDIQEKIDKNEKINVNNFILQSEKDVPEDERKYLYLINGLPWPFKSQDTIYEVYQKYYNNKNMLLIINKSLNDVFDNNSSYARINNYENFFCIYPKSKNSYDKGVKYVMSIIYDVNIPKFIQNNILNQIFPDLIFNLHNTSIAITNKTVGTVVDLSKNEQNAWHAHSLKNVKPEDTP

For the compound `CCCCCCCCCCCCCCCC(=O)OC[C@H](COP(=O)([O-])OCC[N+](C)(C)C)OC(=O)CCCCCCCCCCCCCCC` [L-[α-dipalmitoyl-1-14C]phosphatidylcholine], the “radiolabelled phospholipid transfer between donor and acceptor vesicles” value is “(PFA0210cN99, PFA0210cN123, and PFA0210cN144, respectively) as the N-terminal residue can transfer phospholipids” on PFA0210cN99; “transferred PC at levels similar to that of the control protein PITP” in assay [1]; “(PFA0210cN99, PFA0210cN123, and PFA0210cN144, respectively) as the N-terminal residue can transfer phospholipids” on PFA0210cN123.

For the origin of these results see publication PMC3814793, “Identification of a Plasmodium falciparum Phospholipid Transfer Protein” (The Journal of Biological Chemistry, 2013).
